Measured values published in PMC10525509, “Exploring the Synthetic Chemistry of Phenyl-3-(5-aryl-2-furyl)- 2-propen-1-ones as Urease Inhibitors: Mechanistic Approach through Urease Inhibition, Molecular Docking and Structure–Activity Relationship” (Biomedicines, 2023).

Target: T1, urease enzyme (Canavalia ensiformis, UniProt P07374)
T1 construct: purchased CAS Number: 9002-13-5
Assay: Urease inhibition assay (modified Berthelot assay)
Assay type: biochemical, Canavalia ensiformis (Jack bean)
Conditions: for inhibition at 100 µM: read-out: %Age Urease Inhibition Activity (0.1 mM)
Procedure: Chalcones are important medicinal compounds to combat several pathological conditions associated with ureolytic enzymes (urease). […] Urease inhibition assay was performed according to the reported protocol by Pervez et al..
All reagents and solvents were obtained from the supplier or recrystallized or redistilled as necessary. Thin-layer chromatography was performed using aluminum sheets (Merck) coated with silica gel 60 F254. Urease enzyme was purchased from Canavalia ensiformis (Jack bean), CAS Number: 9002-13-5. IR spectra were recorded using an IR PerkinElmer Spectrum 1 FTIR spectrophotometer, and peaks were reported as ax (neat)/cm^−1, which refer to the […] wave numbers. Proton magnetic resonance spectra were recorded in CDCl3 with a Bruker AM 300 spectrometer (Rheinstetten-Forchheim, Germany) operating at 300 MHz, respectively. The ^13C NMR spectra were recorded in CDCl3 with a Bruker AM 100 spectrometer operating at 100 MHz. Tetramethylsilane was used as an internal standard. Elemental analyses for C, H, and N were recorded with the PerkinElmer 2400 Series II CHN Analyzer. Melting points were recorded on a GallenKamp apparatus and are uncorrected.
The enzyme assay is a modified form of the commonly known Berthelot assay. A total volume of 85 µL assay mixture contained 10 µL of phosphate buffer at pH 7.0 in each well of the 96-well plate, to which 10 µL of sample solution and 25 µL of enzyme solution (0.1347 units) were added. The contents were pre-incubated at 37 °C for 5 min. Then, 40 µL of urea stock solution (20 mM) was added to each well, and incubation continued at 37 °C for another 10 min. After the given time, 115 µL phenol hypochlorite reagent was added to each well (freshly prepared by mixing 45 µL phenol reagent with 70 µL of alkali reagent). For color development, incubation was performed at 37 °C for another 10 min. Absorbance was measured at 625 nm using the 96-well plate reader Synergy HT.

T1 sequence (P07374 whole entry, looked up): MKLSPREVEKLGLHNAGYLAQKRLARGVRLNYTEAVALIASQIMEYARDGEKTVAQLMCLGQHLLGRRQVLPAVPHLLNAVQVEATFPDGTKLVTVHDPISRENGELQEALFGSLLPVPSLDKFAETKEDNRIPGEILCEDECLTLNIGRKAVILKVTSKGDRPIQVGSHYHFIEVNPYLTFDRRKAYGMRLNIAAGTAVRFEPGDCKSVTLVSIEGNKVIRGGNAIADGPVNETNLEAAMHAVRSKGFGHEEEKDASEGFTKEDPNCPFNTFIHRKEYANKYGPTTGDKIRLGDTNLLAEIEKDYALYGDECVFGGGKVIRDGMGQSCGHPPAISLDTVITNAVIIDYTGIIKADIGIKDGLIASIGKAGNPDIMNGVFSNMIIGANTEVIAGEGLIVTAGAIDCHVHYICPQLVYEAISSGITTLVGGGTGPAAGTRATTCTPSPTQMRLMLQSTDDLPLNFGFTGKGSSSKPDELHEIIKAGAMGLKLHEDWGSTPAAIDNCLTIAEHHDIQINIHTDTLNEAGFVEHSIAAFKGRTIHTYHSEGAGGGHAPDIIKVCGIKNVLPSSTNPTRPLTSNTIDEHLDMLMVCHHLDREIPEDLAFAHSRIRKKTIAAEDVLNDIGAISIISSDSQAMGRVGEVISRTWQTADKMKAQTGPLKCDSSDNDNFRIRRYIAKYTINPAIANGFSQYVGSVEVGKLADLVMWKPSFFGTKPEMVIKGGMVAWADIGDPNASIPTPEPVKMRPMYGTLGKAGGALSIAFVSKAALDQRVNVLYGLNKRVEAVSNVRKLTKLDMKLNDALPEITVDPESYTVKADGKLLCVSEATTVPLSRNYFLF

For `O=C(/C=C/c1ccc(-c2ccc(Br)cc2)o1)c1ccccc1` [Compound 4c], the “urease inhibition activity (in words)” value was “inactive” and the inhibition at 100 µM was 39.41 ± 0.34%.

In the case of `O=C(/C=C/c1ccc(-c2ccc(Cl)cc2Cl)o1)c1ccccc1` [Compound 4o], the IC50 is reported as 34 ± 9.61 µM and the inhibition at 100 µM is reported as 54.9 ± 1.98%.

`O=C(/C=C/c1ccc(-c2ccccc2Cl)o1)c1ccccc1` [Compound 4s, 1-phenyl-3-[5-(2′-chlorophenyl)-2-furyl]-2-propen-1-one] showed an IC50 of 18.7 ± 0.85 µM and an inhibition at 100 µM of 71.4 ± 1.77%.

In the case of `O=C(/C=C/c1ccc(-c2ccccc2[N+](=O)[O-])o1)c1ccccc1` [Compound 4l], the IC50 is reported as 91.4 ± 6.25 µM and the inhibition at 100 µM is reported as 51.47 ± 0.41%.

`O=C(O)c1cccc(-c2ccc(/C=C/C(=O)c3ccccc3)o2)c1` [Compound 4n] gave an IC50 of 46.8 ± 5.44 µM and an inhibition at 100 µM of 62.3 ± 1.28%.

Molecule `Cc1cc(-c2ccc(/C=C/C(=O)c3ccccc3)o2)cc([N+](=O)[O-])c1` [Compound 4p] has an IC50 of 52.6 ± 8.52 µM and an inhibition at 100 µM of 57.4 ± 3.02%.

`O=C(/C=C/c1ccc(-c2cc(Cl)ccc2Cl)o1)c1ccccc1` [Compound 4h, 1-phenyl-3-[5-(2′,5′-dichlorophenyl)-2-furyl]-2-propen-1-one] was tested, and the IC50 was 16.1 ± 2.45 µM and the inhibition at 100 µM was 66.2 ± 1.36%.

For `O=C(/C=C/c1ccc(-c2cc(Cl)ccc2[N+](=O)[O-])o1)c1ccccc1` [Compound 4i], the IC50 was 90.8 ± 8.99 µM and the inhibition at 100 µM was 51.7 ± 1.62%.

`O=C(/C=C/c1ccc(-c2ccc([N+](=O)[O-])cc2)o1)c1ccccc1` [Compound 4a] showed an IC50 of 91.9 ± 2.24 µM and an inhibition at 100 µM of 50.7 ± 0.62%.

In the case of `O=C(/C=C/c1ccc(-c2ccc([N+](=O)[O-])cc2[N+](=O)[O-])o1)c1ccccc1` [Compound 4q], the IC50 is reported as 44.4 ± 6.91 µM and the inhibition at 100 µM is reported as 54.7 ± 0.73%.

For `O=C(/C=C/c1ccc(-c2cccc([N+](=O)[O-])c2)o1)c1ccccc1` [Compound 4d], the “urease inhibition activity (in words)” value was “inactive” and the inhibition at 100 µM was 46.5 ± 0.91%.

For `O=C(O)c1ccc(-c2ccc(/C=C/C(=O)c3ccccc3)o2)cc1` [Compound 4e], the IC50 was 25 ± 1.77 µM, the “urease inhibition activity (in words)” value was “inactive” and the inhibition at 100 µM was 65.5 ± 0.77%.

With `O=C(/C=C/c1ccc(-c2ccc([N+](=O)[O-])cc2Cl)o1)c1ccccc1` [Compound 4m] the IC50 was 26.7 ± 0.65 µM and the inhibition at 100 µM was 63.1 ± 0.86%.

`O=C(/C=C/c1ccc(-c2cc(Cl)cc(Cl)c2)o1)c1ccccc1` [Compound 4g] was tested, and the “urease inhibition activity (in words)” value was “inactive” and the inhibition at 100 µM was 39.7 ± 2.46%.

`O=C(/C=C/c1ccc(-c2ccc(Cl)cc2)o1)c1ccccc1` [Compound 4b] was tested, and the “urease inhibition activity (in words)” value was “inactive” and the inhibition at 100 µM was 27.15 ± 0.17%.

For `O=C(/C=C/c1ccc(-c2cccc(Cl)c2)o1)c1ccccc1` [Compound 4k], the IC50 was 23.1 ± 3.65 µM and the inhibition at 100 µM was 69.52 ± 0.16%.

Work on `O=C(/C=C/c1ccc(-c2cccc(Cl)c2[N+](=O)[O-])o1)c1ccccc1` [Compound 4j] yielded an IC50 of 26 ± 2.25 µM and an inhibition at 100 µM of 68.24 ± 0.11%.

`Cc1c(-c2ccc(/C=C/C(=O)c3ccccc3)o2)cccc1[N+](=O)[O-]` [Compound 4r] was tested, and the “urease inhibition activity (in words)” value was “inactive” and the inhibition at 100 µM was 12.6 ± 3.37%.

`O=C(/C=C/c1ccc(-c2ccc(Cl)c(Cl)c2)o1)c1ccccc1` [Compound 4f, 1-phenyl-3-[5-(3′,4′-dichlorophenyl) -2-furyl]-2-propen-1-one] gave an IC50 of 21 ± 3.52 µM and an inhibition at 100 µM of 69.7 ± 1.86%.
